Read-outs that look alike come from different tables or passages of the source.
Tests used:
[1] = test system: adjuvant-induced arthritis; assay: Established adjuvant-induced arthritis in rats (paw volume); assay type: in vivo, Charles River Lewis male rats; conditions: for ED50: read-out: Adjuvant Arthritic ED50; for Paw volume reduction at indicated daily dose (Adjuvant Arthritic): oral, daily dose 9 (mg/kg), 7 days, printed in the ED50 column, footnote 1
[2] = test system: writhing induced by phenylquinone; assay: Phenylquinone writhing test (analgesic activity); assay type: in vivo, female white mice; conditions: read-out: Phenylquinone Writhing ED50
Procedure: PHENYLQUINONE WRITHING TEST
A test compound suspended in 1% methylcellulose was given orally to fasted (17-21 hours) female white mice, 5-20 animals per double blind test. Aqueous (0.01% phenyl-p-benzoquinone)phenylquinone, 0.20 ml per mouse, was injected intraperitoneally 6 minutes before observations were begun.

[3] = rat, oral gavage daily for 7 days, ED50% decrease from control paw volume, uninjected left hind paw, one day after last dose
[4] = mouse, oral, fasted 17-21 hours, effective analgesic dose for 50% of the mice

`CC(=O)Oc1ccccc1C(=O)O` [Aspirin, reference compound] was tested, and the ED50 ([1]; Rattus norvegicus, po) was 305 mg/kg and the ED50 ([2]; Mus musculus, po) was 135 mg/kg.

`FC(F)C(F)(F)Sc1nc2c([nH]1)C(c1ccccc1)c1ccccc1-2` (stereo not drawn) [Example 1, 1,8-Dihydro(or 3,8-dihydro)-2-[(1,1,2,2-tetrafluoroethyl)thio]-8-phenyl-indeno[1,2-d]imidazole] gave an ED50 [1, 3] of 0.79 mg/kg and an ED50 [2, 4] of 0.16 mg/kg.

For `O=S(=O)(c1nc2c([nH]1)C(c1ccccc1)c1ccccc1-2)C(F)(F)C(F)F` (stereo not drawn) [Example 2, 1,8-Dihydro(or 3,8-dihydro)-2-[(1,1,2,2-tetrafluoroethyl)sulfonyl]-8-phenyl-indeno[1,2-d]imidazole], the ED50 [1, 3] was 0.2 mg/kg and the ED50 [2, 4] was 0.04 mg/kg.

For `FC(F)(F)Sc1nc2c([nH]1)C(c1ccccc1)c1ccccc1-2` (stereo not drawn) [Example 3, 1,8-Dihydro(or 3,8-dihydro)-2-[(trifluoromethyl)thio]-8-phenyl-indeno[1,2-d]imidazole], the ED50 [1, 3] was 1.1 mg/kg and the ED50 [2, 4] was 0.26 mg/kg.

`O=S(=O)(c1nc2c([nH]1)C(c1ccccc1)c1ccccc1-2)C(F)(F)F` (stereo not drawn) [Example 4, 1,8-Dihydro(or 3,8-dihydro)-2-[(trifluoromethyl)sulfonyl]-8-phenyl-indeno[1,2-d]imidazole] gave an ED50 [1, 3] of 1.35 mg/kg and an ED50 [2, 4] of 0.04 mg/kg.

`[O-][S+](c1nc2c([nH]1)C(c1ccccc1)c1ccccc1-2)C(F)(F)F` (stereo not drawn) [Example 5, 1,8-Dihydro(or 3,8-dihydro)-2-[(trifluoromethyl)sulfinyl]-8-phenyl-indeno[1,2-d]imidazole] was tested, and the ED50 [1, 3] was 0.62 mg/kg and the ED50 [2, 4] was 0.057 mg/kg.

Molecule `CSc1nc2c([nH]1)C(c1ccccc1)c1ccccc1-2` (stereo not drawn) [Example 6, 1,8-Dihydro(or 3,8-dihydro)-2-(methylthio)-8-phenyl-indeno[1,2-d]imidazole] has an ED50 [1, 3] of 50 mg/kg and an ED50 [2, 4] of 27 mg/kg.

Molecule `CS(=O)(=O)c1nc2c([nH]1)C(c1ccccc1)c1ccccc1-2` (stereo not drawn) [Example 7, 1,8-Dihydro(or 3,8-dihydro)-2-(methylsulfonyl)-8-phenyl-indeno[1,2]-dimidazole] has an ED50 [1, 3] of 19 mg/kg and an ED50 [2, 4] of 14 mg/kg.

`COc1ccc2c(c1)C(c1ccccc1)c1[nH]c(SC(F)(F)F)nc1-2` (stereo not drawn) [Example 8] was tested, and the ED50 [1, 3] was 10.5 mg/kg and the ED50 [2, 4] was 2.4 mg/kg.

Molecule `COc1cccc2c1-c1nc(SC(F)(F)F)[nH]c1C2c1ccccc1` (stereo not drawn) [Example 9] has an ED50 [1, 3] greater than 9 mg/kg and an ED50 [2, 4] of 8.3 mg/kg.

In the case of `FC(F)(F)Sc1nc2c([nH]1)C(c1ccc(Cl)c(Cl)c1)c1ccccc1-2` (stereo not drawn) [Example 10], the “Paw volume reduction at indicated daily dose (Adjuvant Arthritic)” value ([1]; rat) is reported as 44% and the ED50 [2, 4] is reported as 1.3 mg/kg.

For `CCSc1nc2c([nH]1)C(c1ccccc1)c1ccccc1-2` (stereo not drawn) [Example 11], the ED50 [1, 3] was 14 mg/kg and the ED50 [2, 4] was 14 mg/kg.

In the case of `CCCCSc1nc2c([nH]1)C(c1ccccc1)c1ccccc1-2` (stereo not drawn) [Example 12], the ED50 [1, 3] is reported as greater than 27 mg/kg and the ED50 [2, 4] is reported as 65 mg/kg.

In the case of `COc1ccc(C2c3ccccc3-c3nc(SC(F)(F)F)[nH]c32)cc1` (stereo not drawn) [Example 13], the ED50 [1, 3] is reported as 3.2 mg/kg and the ED50 [2, 4] is reported as 0.147 mg/kg.

In the case of `COc1ccc(C2c3ccccc3-c3nc(S(=O)(=O)C(F)(F)F)[nH]c32)cc1` (stereo not drawn) [Example 14], the ED50 [1, 3] is reported as 0.5 mg/kg and the ED50 [2, 4] is reported as 0.2 mg/kg.

With `Cc1ccc2c(c1)-c1nc(SC(F)(F)C(F)F)[nH]c1C2c1ccccc1` (stereo not drawn) [Example 15] the ED50 [1, 3] was 3.6 mg/kg and the ED50 [2, 4] was 5 mg/kg.

For `Cc1ccc2c(c1)-c1nc(S(=O)(=O)C(F)(F)C(F)F)[nH]c1C2c1ccccc1` (stereo not drawn) [Example 16], the “Paw volume reduction at indicated daily dose (Adjuvant Arthritic)” value ([1]; rat) was 39% and the ED50 [2, 4] was 0.064 mg/kg.

`Fc1ccc(C2c3ccccc3-c3nc(SC(F)(F)F)[nH]c32)cc1` (stereo not drawn) [Example 17] showed an ED50 [1, 3] of 2.4 mg/kg and an ED50 [2, 4] of 0.14 mg/kg.

`CC(C)Cc1ccc(C(C)C(=O)O)cc1` (stereo not drawn) [Ibuprofen, reference compound] was tested, and the ED50 [1, 3] was 100 mg/kg and the ED50 [2, 4] was 10 mg/kg.

`COc1ccc2c(c1)c(CC(=O)O)c(C)n2C(=O)c1ccc(Cl)cc1` [Indomethacin, reference compound] gave an ED50 ([1]; Rattus norvegicus, po) of 0.3 mg/kg and an ED50 ([2]; Mus musculus, po) of 0.35 mg/kg.

For `CCCCC1C(=O)N(c2ccccc2)N(c2ccccc2)C1=O` [Phenylbutazone, phenylbutazone, reference compound], the ED50 [1, 3] was 10 mg/kg and the ED50 [2, 4] was 80 mg/kg.
